What was measured:
Format in all cases: physicochemical
[1] = Screening of antioxidant (tolterodine decomposition in H2O2 solution); settings: 25° C., 100 rpm, 2.5 days
Method: (§1) [Analytical Method] • Test solution: tolterodine (−0.5 mg/mL) • Mobile phase: 45:55 mixture solution of ammonium dihydrogen phosphate and methanol, pH 7.0 • HPLC condition: detector 220 nm, column ODS3 C-18
Tolterodine free base (500 mg) was mixed with ethanol (50 mL) in a 100 mL flask and 0.3% H2O2 solution was added thereto to a final volume of 100 mL.
Antioxidant, weighed 10 mg each, was added into two glass bottles. One bottle contained tolterodine and the antioxidant, while the other bottle contained only the antioxidant, which was prepared to exclude the peaks resulting from the decomposition of the antioxidant by H2O2.
Tolterodine solution (2 mL) or a 1:1 mixture solution of 0.3% H2O2 aqueous solution and ethanol (2 mL) were added to the two glass bottles containing the antioxidant. The bottles were agitated at 100 rpm and 25° C. for 2.5 days.

[2] = Stress decomposition test of tolterodine under heat conditions
Method: as §1
Tolterodine free base (25-30 mg) was weighed and added into four glass bottles which were then capped with plugs. Three of the glass bottles were placed in an oven preheated at 120° C. At 10 minutes, 20 minutes and 30 minutes, each glass bottle was taken out from the oven and was allowed to cool enough at room temperature. After adding methanol (100 mL) to the four glass bottles followed by ultrasonic extraction for 10 minutes, decomposed substances of tolterodine were quantitated by HPLC as in Reference Example 1.

[3] = Stress decomposition test of tolterodine under acidic/basic/oxidizing conditions; settings: for Total decomposed substances (peak area ratio of decomposed substances of tolterodine): 24 hours, HPLC
Method: Tolterodine free base (20 mg) was added respectively to three 100 mL flasks. Each of the above flasks was then added with 0.1 M HCl (5 mL), 0.1 M NaOH (5 mL) and 0.3% H2O2 solution (5 mL), respectively, added with methanol to a final volume of 20 mL and was subjected to ultrasonic extraction for 10 minutes.
Each sample was allowed to stand at room temperature for 24 hours and decomposed substances of tolterodine were quantitated by HPLC as follows.
as §1

[4] = tolterodine in ethanol/0.3% H2O2 with 10 mg of the named antioxidant

| SMILES | Total decomposed substances (peak area ratio of decomposed substances of tolterodine) [1, 4] [%] | other results |
| --- | --- | --- |
| O=C(O)CC(O)C(=O)O (racemic) [d,l-Malic acid] | 1.39 |  |
| CC(=O)Oc1c(C)c(C)c2c(c1C)CC[C@@](C)(CCC[C@H](C)CCC[C@H](C)CCCC(C)C)O2 [(+)-α-Tocopherol acetate] | 23.56 |  |
| COc1ccc(O)c(C(C)(C)C)c1 [Butylated hydroxyanisole (BHA), Butylated hydroxyanisole] | 23.87 |  |
| Cc1cc(C(C)(C)C)c(O)c(C(C)(C)C)c1 [Butylated hydroxytoluene (BHT), Butylated hydroxytoluene] | 18.82 |  |
| O=C(O)CC(O)(CC(=O)O)C(=O)O [Citric acid] | 1.46 |  |
| CCOC(=O)c1cc(O)c(O)c(O)c1 [Ethyl gallate] | 13.00 |  |
| O=C([O-])CN(CCN(CC(=O)[O-])CC(=O)[O-])CC(=O)[O-].[Ca+2].[Na+].[Na+] [Ethylenediaminetetraacetic acid calcium disodium salt] | 29.69 |  |
| CCCCCCCCCCCCOC(=O)c1cc(O)c(O)c(O)c1 [Lauryl gallate] | 19.94 |  |
| O=S([O-])[O-].[Na+].[Na+] [Sodium sulfite] | 5.67 |  |
| O=S([O-])([O-])=S.[Na+].[Na+] [Sodium thiosulfate] | 1.94 |  |
| Cc1c(C)c2c(c(C)c1O)CCC(C)(CCCC(C)CCCC(C)CCCC(C)C)O2 (stereo not drawn) [d,l-α-Tocopherol] | 20.29 |  |
| CCCCCCCCCCCCCCCC(=O)OC[C@H](O)[C@H]1OC(=O)C(O)=C1O [l-Ascorbic acid 6-palmitate] | 1.94 |  |
| O=C1O[C@H]([C@@H](O)CO)C(O)=C1O [l-Ascorbic acid] | 1.21 |  |
| Cl.N[C@@H](CS)C(=O)O [l-Cysteine HCl] |  | Total decomposed substances (peak area ratio of decomposed substances of tolterodine) ([1]; tolterodine in ethanol/0.3% H2O2 with 10 mg of the named antioxidant, HCl): 1.70% |
| N[C@@H](CCC(=O)O)C(=O)O [l-Glutamic acid] | 1.52 |  |
| O=C(O)C(O)C(O)C(=O)O (stereo not drawn) [l-Tartaric acid] | 1.44 |  |
| CCCCCCCCOC(=O)c1cc(O)c(O)c(O)c1 [n-Octyl gallate] | 15.97 |  |
| Cc1ccc(O)c([C@H](CCN(C(C)C)C(C)C)c2ccccc2)c1 [tolterodine] |  | Total decomposed substances (peak area ratio of decomposed substances of tolterodine) ([1]; tolterodine in ethanol/0.3% H2O2, antioxidant: None): 26.08%; Total decomposed substances (peak area ratio of decomposed substances of tolterodine) ([2]; 120° C./0 min): 0.45%; Total decomposed substances (peak area ratio of decomposed substances of tolterodine) ([2]; 120° C./10 min): 0.59%; Total decomposed substances (peak area ratio of decomposed substances of tolterodine) ([2]; 120° C./20 min): 0.63%; Total decomposed substances (peak area ratio of decomposed substances of tolterodine) ([2]; 120° C./30 min): 0.78%; Total decomposed substances (peak area ratio of decomposed substances of tolterodine) ([3]; 0.1M HCl, room temperature): 0.59%; Total decomposed substances (peak area ratio of decomposed substances of tolterodine) ([3]; 0.1M NaOH, room temperature): 0.83%; Total decomposed substances (peak area ratio of decomposed substances of tolterodine) ([3]; 0.3% H2O2, room temperature): 4.74%; Production of decomposed substances of tolterodine under stress conditions (in words) ([3]; harsh oxidizing condition, compared with acid, base and heat): Much of decomposed substances of tolterodine were produced |

Source: patent US9155715B2, “Transdermal composition comprising tolterodine” (SK Chemicals Co., Ltd., priority 2009, dated 2015)
